This is an account of results in ChEMBL document CHEMBL1136284, “An aminopyridazine-based inhibitor of a pro-apoptotic protein kinase attenuates hypoxia-ischemia induced acute brain injury” (Bioorg Med Chem Lett, 2003).

Molecules are shown by their SMILES. Where only a bound is given, the exact number is not on record here.

Broadly, the IC50 is the concentration at which inhibition is half-maximal. One may read the Ki as a measure of affinity in units of concentration, obtained from inhibition or displacement. A lower Ki goes with a stronger hold on the target.

Experiment [1] in a line: Inhibition of Death associated protein kinase.
A short description of experiment [2]: Displacement of ATP from Death associated protein kinase.
Experiment [3] addresses Protein kinase C (PKC). The experiment is described as follows: Inhibition of Protein kinase C. It is filed as protein assay.
The target of experiment [4] is cAMP-dependent protein kinase (PKA) (Homo sapiens, UniProt P22694+P17612+P22612). As to the kind of experiment: Inhibition of Protein kinase A. It is filed as protein assay.
For experiment [5], the species on record is Rattus norvegicus. As to the kind of experiment: Brain hemisphere weight loss 6 hr after HI injury in rats.
Experiment [6] concerns Rattus norvegicus. As to the kind of experiment: Brain hemisphere weight loss after 5 mg/kg ip administration prior to HI injury in rats. Particulars: route intraperitoneal.
Experiment [7] concerns the target CaM kinase II (Homo sapiens, UniProt Q13557+Q13555+Q13554+Q9UQM7). The experiment is described as follows: Inhibition of Calcium/calmodulin-dependent protein kinase type II. Type of experiment: protein assay.

With `N=c1cc2c(nn1CCCCCCCCCCC(=O)Nc1ccc(-c3ccccc3)nn1)-c1ccccc1CC2`, the IC50 is 13 µM in experiment [1], more than 100 µM in experiment [3] and more than 100 µM in experiment [4]. For the same compound, the figures for the Ki in experiment [1] and in experiment [2] were 15 µM and 20 µM, respectively. The Weight loss is 21.6% in experiment [5] and 17.3% in experiment [6].

`N=c1ccc(-c2ccccc2)nn1CCCCCCCCCCC(=O)Nc1ccc(-c2ccccc2)nn1`: the IC50 in experiment [1] was 22 µM; in experiment [7] it was more than 100 µM; in experiment [3], 3 µM; in experiment [4], more than 100 µM.

Consider `Cc1ccc(=N)n(CCCCCCCCCCC(=O)Nc2ccc(-c3ccccc3)nn2)n1`, for which the IC50 in experiment [1] was more than 100 µM; in experiment [7] it was more than 100 µM; in experiment [3], 31 µM; in experiment [4] it was more than 100 µM.

As to `Cc1cc(-c2ccccc2)nnc1NCCN1CCOCC1` [MINAPRINE], the half-maximal inhibitory concentration (IC50) in experiment [1], in experiment [7], in experiment [3] and in experiment [4] was more than 100 µM in each case.
